According to ChEMBL document CHEMBL1201862, “PubChem BioAssay data set” (2004):
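Interpolation was linear, between the two tested concentrations surrounding the appropriate level; five concentrations were tested over 48 hours in 96-well plates. At the GI50, growth is halved.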 Activity calls are given as the source filed them. Cut-off read from the data, not from the text of the source: active = GI50 up to about 1.1 µM and inactive = higher.

Assays:
Test in all cases: NCI tumour cell line growth inhibition, 48 h
DMS-273 = tested on: DMS-273
HOP-62 = tested on: HOP-62
HOP-92 = tested on: HOP-92
K562 = tested on: K562
KM-20L2 = tested on: KM-20L2
M19-MEL = tested on: M19-MEL
Malme-3M = tested on: Malme-3M
NCI-H23 = tested on: NCI-H23
NCI-H460 = tested on: NCI-H460
NCI-H522 = tested on: NCI-H522
OVCAR-8 = tested on: OVCAR-8
RPMI-8226 = tested on: RPMI-8226
SF-268 = tested on: SF-268
SF-295 = tested on: SF-295
SK-MEL-28 = tested on: SK-MEL-28
SK-OV-3 = tested on: SK-OV-3
TK-10 = tested on: TK-10
UACC-62 = tested on: UACC-62
HL-60 = tested on: HL-60

Measured: GI50

Nc1ccc(C(=O)N/C(=C\c2ccc3c(c2)OCO3)c2nc3ccc4c(c3[nH]2)C(=O)c2ccccc2C4=O)cc1
inactive: DMS-273 23.6 µM | HOP-62 36.8 µM | HOP-92 17.5 µM | K562 25.5 µM | KM-20L2 59.6 µM | M19-MEL 38.2 µM | Malme-3M 61.8 µM | NCI-H23 14.4 µM | NCI-H460 26.4 µM | NCI-H522 6.75 µM | OVCAR-8 29.6 µM | RPMI-8226 3.68 µM | SF-268 12.4 µM | SF-295 41.7 µM | SK-MEL-28 33.1 µM | SK-OV-3 23.1 µM | TK-10 23.1 µM | UACC-62 33.7 µM

O=C(Nc1ccccc1)c1ccc(Cl)c([N+](=O)[O-])c1
inactive: DMS-273 3.45 µM | HOP-62 32.7 µM | K562 2.96 µM | KM-20L2 13.5 µM | M19-MEL 12.5 µM | Malme-3M 20.5 µM | NCI-H23 23 µM | NCI-H460 6.31 µM | NCI-H522 6.79 µM | OVCAR-8 9.33 µM | RPMI-8226 3.88 µM | SF-268 > 10 µM | SF-295 15.3 µM | SK-MEL-28 22.4 µM | SK-OV-3 23.6 µM | TK-10 29.3 µM | UACC-62 6.68 µM

CC(NC(=O)C(=O)N/N=C1\C[C@@H](c2ccccc2)Nc2ccccc21)c1ccccc1 (some centres undefined)
inactive: DMS-273 7.55 µM | HL-60 8.57 µM | HOP-62 > 100 µM | HOP-92 20 µM | KM-20L2 > 100 µM | M19-MEL > 100 µM | Malme-3M 20.5 µM | NCI-H23 > 100 µM | NCI-H460 > 100 µM | NCI-H522 > 100 µM | OVCAR-8 > 100 µM | SF-268 94.6 µM | SF-295 > 100 µM | SK-MEL-28 > 100 µM | TK-10 > 100 µM

CNS(=O)(=O)NNS(=O)(=O)c1ccc(F)cc1
inactive: DMS-273 > 100 µM | HL-60 > 100 µM | HOP-62 > 100 µM | K562 > 100 µM | KM-20L2 > 100 µM | M19-MEL > 100 µM | NCI-H23 > 100 µM | NCI-H460 59.3 µM | NCI-H522 > 100 µM | OVCAR-8 > 100 µM | RPMI-8226 > 100 µM | SF-268 > 100 µM | SF-295 > 100 µM | UACC-62 > 100 µM

NCc1c(C(N)=O)ncn1Cc1ccccc1
inactive: DMS-273 > 100 µM | HL-60 > 100 µM | HOP-62 > 100 µM | HOP-92 65.9 µM | K562 > 100 µM | KM-20L2 > 100 µM | M19-MEL > 100 µM | NCI-H23 > 100 µM | NCI-H460 > 100 µM | OVCAR-8 > 100 µM | RPMI-8226 > 100 µM | SF-295 > 100 µM | SK-MEL-28 > 100 µM | SK-OV-3 > 100 µM | TK-10 > 100 µM | UACC-62 > 100 µM

CC(C)(C)c1cc(O)c2c(c1O)C(=O)CCC2
inactive: DMS-273 34.8 µM | HL-60 20.2 µM | HOP-62 22.8 µM | HOP-92 2.69 µM | K562 30.3 µM | KM-20L2 40.1 µM | M19-MEL 30.5 µM | NCI-H23 28.9 µM | NCI-H460 48 µM | OVCAR-8 36.7 µM | RPMI-8226 21.1 µM | SF-295 30.2 µM | SK-MEL-28 42.6 µM | SK-OV-3 40.5 µM | TK-10 40.9 µM | UACC-62 26 µM

CC(=O)NNc1nc(C)c(C(/C=C/c2ccc(Cl)cc2)=N/NC(=O)C[N+](C)(C)C)s1
inactive: DMS-273 > 100 µM | HL-60 > 100 µM | HOP-92 > 100 µM | K562 > 100 µM | KM-20L2 > 100 µM | M19-MEL > 100 µM | Malme-3M > 100 µM | NCI-H23 > 100 µM | NCI-H460 > 100 µM | NCI-H522 > 100 µM | SF-268 > 100 µM | SF-295 > 100 µM | SK-MEL-28 > 100 µM | SK-OV-3 > 100 µM | TK-10 > 100 µM | UACC-62 > 100 µM

Cc1ccc(Nc2nc(C)c(C(/C=C/c3ccc4c(c3)OCO4)=N/Nc3ccc([N+](=O)[O-])cc3[N+](=O)[O-])s2)c([N+](=O)[O-])c1
inactive: DMS-273 25.9 µM | HL-60 21.7 µM | HOP-62 32.8 µM | K562 14.3 µM | KM-20L2 33.9 µM | M19-MEL 59.7 µM | Malme-3M 65.3 µM | NCI-H23 33.2 µM | NCI-H460 41 µM | NCI-H522 14.2 µM | OVCAR-8 70.3 µM | SF-268 53.2 µM | SF-295 65 µM | SK-MEL-28 > 100 µM | SK-OV-3 26.7 µM | TK-10 37.8 µM | UACC-62 3.59 µM

CCOC(=O)NC(=O)c1cn(CCN2CCN(C(=O)CCCCCCCCCCNc3ncnc4[nH]cnc34)CC2)c(=O)[nH]c1=O
inactive: DMS-273 > 100 µM | HL-60 46.7 µM | HOP-62 > 100 µM | HOP-92 > 100 µM | K562 58.7 µM | KM-20L2 > 100 µM | M19-MEL > 100 µM | Malme-3M 6.7 µM | NCI-H23 > 100 µM | NCI-H460 > 100 µM | OVCAR-8 > 100 µM | RPMI-8226 94 µM | SF-268 13.1 µM | SF-295 > 100 µM | SK-MEL-28 11.5 µM | SK-OV-3 > 100 µM | TK-10 > 100 µM | UACC-62 25.8 µM

COc1cc(C(C)c2cc3c(cc2OCCNC(=O)COc2cc4c(cc2C(C)c2cc(OC)c(OC)c(OC)c2)OCO4)OCO3)cc(OC)c1OC (centres undefined)
inactive: DMS-273 75.9 µM | HL-60 > 100 µM | HOP-62 58.7 µM | K562 73.1 µM | KM-20L2 > 100 µM | M19-MEL 80.2 µM | Malme-3M > 100 µM | NCI-H23 > 100 µM | NCI-H460 22.2 µM | NCI-H522 29.5 µM | OVCAR-8 49.5 µM | SF-268 50.4 µM | SF-295 > 100 µM | SK-MEL-28 > 100 µM | TK-10 > 100 µM | UACC-62 6.78 µM

COc1ccc(/C=C/C(=O)C(C)(C)CN2CCCCC2)cc1
inactive: DMS-273 18.2 µM | HL-60 18.6 µM | HOP-62 32.2 µM | K562 24.2 µM | KM-20L2 20.2 µM | M19-MEL 16.4 µM | Malme-3M 22.2 µM | NCI-H23 24.5 µM | NCI-H460 18.7 µM | NCI-H522 14 µM | OVCAR-8 19 µM | RPMI-8226 18.2 µM | SF-268 22.1 µM | SF-295 38.1 µM | SK-MEL-28 24.2 µM | SK-OV-3 21.5 µM | TK-10 20.8 µM | UACC-62 24.7 µM

CCCCCCCCCCCCCCCCCC(=O)NCC(COP(=O)([O-])OCC[N+](C)(C)C)OC (centres undefined)
inactive: DMS-273 1.58 µM | HL-60 1.16 µM | HOP-62 2.87 µM | HOP-92 2.64 µM | K562 > 10 µM | KM-20L2 2.23 µM | M19-MEL 2.43 µM | Malme-3M 8.59 µM | NCI-H23 14.3 µM | NCI-H460 1.27 µM | OVCAR-8 10.9 µM | RPMI-8226 1.63 µM | SF-268 5.2 µM | SF-295 3.46 µM | SK-MEL-28 16.6 µM | SK-OV-3 15.2 µM | TK-10 1.56 µM | UACC-62 4.53 µM
